Experimental data published in patent US8263605B2, “Modulators of muscarinic receptors” (Vertex Pharmaceutical Incorporated, priority 2006, dated 2012).

Assays:
M4 muscarinic receptor = molecular target: T1, M4 muscarinic receptor (Homo sapiens, UniProt P08173); assay: Functional mobilization of intracellular calcium (FLIPR), M4-CHO cells; format: cell-based; conditions: for Emax: 100% efficacy is the maximum response obtained with the Carbachol control; for M4 Activity: CHO cells expressing M4, calcium mobilization
T1 construct: expressed in transfected cells; host or cells: CHO (M4-CHO)
T1 sequence (P08173 1-479): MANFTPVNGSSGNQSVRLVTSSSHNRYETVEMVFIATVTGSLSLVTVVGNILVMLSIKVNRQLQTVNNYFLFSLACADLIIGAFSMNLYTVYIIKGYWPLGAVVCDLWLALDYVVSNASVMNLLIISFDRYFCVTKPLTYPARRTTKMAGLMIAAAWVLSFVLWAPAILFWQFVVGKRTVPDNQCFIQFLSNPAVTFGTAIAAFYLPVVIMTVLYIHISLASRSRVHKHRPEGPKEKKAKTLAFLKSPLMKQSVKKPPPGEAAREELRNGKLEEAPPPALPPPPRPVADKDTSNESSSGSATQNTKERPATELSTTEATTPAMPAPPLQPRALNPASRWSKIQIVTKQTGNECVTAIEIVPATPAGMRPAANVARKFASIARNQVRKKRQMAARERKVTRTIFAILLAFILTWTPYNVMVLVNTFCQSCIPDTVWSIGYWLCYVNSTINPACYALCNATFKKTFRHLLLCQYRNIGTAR
Method in brief: (§1)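 Recombinant CHO cells loaded with Fluo-3 AM or Calcium 3 dye; fluorescence recorded 60 s on FLIPR in pH 7.4 buffer with 1 mM probenecid, 0.5% DMSO. Agonist mode: compound alone; antagonist mode: 15 min preincubation (or co-application) then carbachol at EC80. Efficacy relative to maximal carbachol response.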

M1 muscarinic receptor = molecular target: T2, M1 muscarinic receptor (Homo sapiens, UniProt P11229); assay: Functional mobilization of intracellular calcium (FLIPR), M1-CHO cells; format: cell-based; conditions: for Emax: 100% efficacy is the maximum response obtained with the Carbachol control; for M1 Activity: CHO cells expressing M1, calcium mobilization
T2 construct: expressed in transfected cells; host or cells: CHO (M1-CHO)
T2 sequence (P11229 1-460): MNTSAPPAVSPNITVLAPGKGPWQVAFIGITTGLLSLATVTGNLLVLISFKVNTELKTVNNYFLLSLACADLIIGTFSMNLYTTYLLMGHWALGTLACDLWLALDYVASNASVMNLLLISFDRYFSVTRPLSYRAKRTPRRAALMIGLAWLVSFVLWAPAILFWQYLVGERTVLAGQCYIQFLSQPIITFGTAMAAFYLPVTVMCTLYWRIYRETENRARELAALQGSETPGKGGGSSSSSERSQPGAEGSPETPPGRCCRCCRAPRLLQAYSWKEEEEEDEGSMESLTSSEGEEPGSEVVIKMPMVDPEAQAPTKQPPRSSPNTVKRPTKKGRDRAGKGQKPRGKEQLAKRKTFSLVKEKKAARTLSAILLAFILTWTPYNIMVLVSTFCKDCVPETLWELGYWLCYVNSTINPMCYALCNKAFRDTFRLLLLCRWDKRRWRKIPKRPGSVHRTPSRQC
Method in brief: as §1

Cc1nsc(N2CCC(N3CCC4(CC3)CN(C(=O)N(C)C)c3ccccc34)CC2)n1 [compound 53]
Emax (M4 muscarinic receptor): > 100% | M4 Activity (M4 muscarinic receptor): +++ (activity was measured to be less than 2.0 μM) | Emax (M1 muscarinic receptor): 25 to 100% | M1 Activity (M1 muscarinic receptor): +++ (activity was measured to be less than 2.0 μM)

COC(=O)N1CC[C@@H](CN2CCC3(CC2)CN(C(=O)N(C)C)c2ccccc23)C1 [compound 54]
Emax (M4 muscarinic receptor): 25 to 100% | M4 Activity (M4 muscarinic receptor): +++ (activity was measured to be less than 2.0 μM) | Emax (M1 muscarinic receptor): 25 to 100% | M1 Activity (M1 muscarinic receptor): +++ (activity was measured to be less than 2.0 μM)

CCCOC(=O)N1CC[C@@H](CN2CCC3(CC2)CN(C(=O)N(C)C)c2ccccc23)C1 [compound 55]
Emax (M4 muscarinic receptor): 25 to 100% | M4 Activity (M4 muscarinic receptor): +++ (activity was measured to be less than 2.0 μM) | Emax (M1 muscarinic receptor): < 25% | M1 Activity (M1 muscarinic receptor): ++ (activity was measured to be from 2.0 μM to 10.0 μM)

CC(C)OC(=O)N1CC[C@@H](CN2CCC3(CC2)CN(C(=O)N(C)C)c2ccccc23)C1 [compound 56]
Emax (M4 muscarinic receptor): 25 to 100% | M4 Activity (M4 muscarinic receptor): +++ (activity was measured to be less than 2.0 μM) | Emax (M1 muscarinic receptor): 25 to 100% | M1 Activity (M1 muscarinic receptor): ++ (activity was measured to be from 2.0 μM to 10.0 μM)

CN(C)C(=O)N1CC2(CCN(C[C@@H]3CCN(C(=O)OCC(F)F)C3)CC2)c2ccccc21 [compound 57]
Emax (M4 muscarinic receptor): 25 to 100% | M4 Activity (M4 muscarinic receptor): +++ (activity was measured to be less than 2.0 μM) | Emax (M1 muscarinic receptor): 25 to 100% | M1 Activity (M1 muscarinic receptor): +++ (activity was measured to be less than 2.0 μM)

COCCOC(=O)N1CC[C@@H](CN2CCC3(CC2)CN(C(=O)N(C)C)c2ccccc23)C1 [compound 58]
Emax (M4 muscarinic receptor): 25 to 100% | M4 Activity (M4 muscarinic receptor): +++ (activity was measured to be less than 2.0 μM) | Emax (M1 muscarinic receptor): 25 to 100% | M1 Activity (M1 muscarinic receptor): ++ (activity was measured to be from 2.0 μM to 10.0 μM)

COC(=O)N1CC[C@H](CN2CCC3(CC2)CN(C(=O)N(C)C)c2ccccc23)C1 [compound 59]
Emax (M4 muscarinic receptor): 25 to 100% | M4 Activity (M4 muscarinic receptor): +++ (activity was measured to be less than 2.0 μM) | Emax (M1 muscarinic receptor): 25 to 100% | M1 Activity (M1 muscarinic receptor): +++ (activity was measured to be less than 2.0 μM)

CCOC(=O)N1CC[C@H](CN2CCC3(CC2)CN(C(=O)N(C)C)c2ccccc23)C1 [compound 60]
Emax (M4 muscarinic receptor): 25 to 100% | M4 Activity (M4 muscarinic receptor): +++ (activity was measured to be less than 2.0 μM) | Emax (M1 muscarinic receptor): 25 to 100% | M1 Activity (M1 muscarinic receptor): +++ (activity was measured to be less than 2.0 μM)

CCCOC(=O)N1CC[C@H](CN2CCC3(CC2)CN(C(=O)N(C)C)c2ccccc23)C1 [compound 61]
Emax (M4 muscarinic receptor): 25 to 100% | M4 Activity (M4 muscarinic receptor): +++ (activity was measured to be less than 2.0 μM) | Emax (M1 muscarinic receptor): < 25% | M1 Activity (M1 muscarinic receptor): ++ (activity was measured to be from 2.0 μM to 10.0 μM)

CC(C)OC(=O)N1CC[C@H](CN2CCC3(CC2)CN(C(=O)N(C)C)c2ccccc23)C1 [compound 62]
Emax (M4 muscarinic receptor): 25 to 100% | M4 Activity (M4 muscarinic receptor): +++ (activity was measured to be less than 2.0 μM) | Emax (M1 muscarinic receptor): 25 to 100% | M1 Activity (M1 muscarinic receptor): ++ (activity was measured to be from 2.0 μM to 10.0 μM)

CN(C)C(=O)N1CC2(CCN(C[C@H]3CCN(C(=O)OCC(F)F)C3)CC2)c2ccccc21 [compound 63]
Emax (M4 muscarinic receptor): 25 to 100% | M4 Activity (M4 muscarinic receptor): +++ (activity was measured to be less than 2.0 μM) | Emax (M1 muscarinic receptor): 25 to 100% | M1 Activity (M1 muscarinic receptor): +++ (activity was measured to be less than 2.0 μM)

COCCOC(=O)N1CC[C@H](CN2CCC3(CC2)CN(C(=O)N(C)C)c2ccccc23)C1 [compound 64]
Emax (M4 muscarinic receptor): 25 to 100% | M4 Activity (M4 muscarinic receptor): +++ (activity was measured to be less than 2.0 μM) | Emax (M1 muscarinic receptor): 25 to 100% | M1 Activity (M1 muscarinic receptor): ++ (activity was measured to be from 2.0 μM to 10.0 μM)

COC(=O)N1CCCC(N2CCC3(CC2)CN(C(=O)N(C)C)c2ccccc23)CC1 (stereo not shown) [compound 67]
Emax (M4 muscarinic receptor): 25 to 100% | M4 Activity (M4 muscarinic receptor): +++ (activity was measured to be less than 2.0 μM) | Emax (M1 muscarinic receptor): 25 to 100% | M1 Activity (M1 muscarinic receptor): +++ (activity was measured to be less than 2.0 μM)
